# Reference: patent US20220401439A1, “INTRANASAL PHARMACEUTICAL COMPOSITIONS OF CGRP INHIBITORS” (Biohaven Pharmaceutical Holding Company Ltd., priority 2019, published 2022)
# Marks after values point to notes of the source that are not given here.
# System: patients receiving acute treatment of migraine
# Assay: Phase 2/3 trial BHV3500-201 (Study 201), efficacy in acute treatment of migraine
# Format: in vivo, human
# [1] = 5 mg single dose, mITT subjects, Overall
# [2] = 5 mg single dose, mITT, Prophylactic migraine medication use: No
# [3] = 5 mg single dose, mITT, Prophylactic migraine medication use: Yes
# [4] = 10 mg single dose, mITT subjects, Overall
# [5] = 10 mg single dose, mITT, Prophylactic migraine medication use: No
# [6] = 10 mg single dose, mITT, Prophylactic migraine medication use: Yes
# [7] = 10 mg single intranasal dose, p < 0.05
# [8] = 20 mg single dose, mITT subjects, Overall
# [9] = 20 mg single dose, mITT, Prophylactic migraine medication use: No
# [10] = 20 mg single dose, mITT, Prophylactic migraine medication use: Yes
# [11] = 20 mg single intranasal dose, p < 0.05
# [12] = zavegepant 5 mg vs placebo, mITT, CMH weighting
# [13] = zavegepant 5 mg vs placebo, subjects with functional disability at onset, CMH weighting
# [14] = zavegepant 5 mg vs placebo, subjects with symptom present at onset, CMH weighting
# [15] = zavegepant 5 mg, mITT subjects with functional disability at on-study migraine attack onset
smiles,measurement,setting,value
"Cc1cc(C[C@@H](NC(=O)N2CCC(c3cc4ccccc4[nH]c3=O)CC2)C(=O)N2CCN(C3CCN(C)CC3)CC2)cc2cn[nH]c12 [Zavegepant, (R)—N-(3-(7-methyl-1H-indazol-5-yl)-1-(4-(1-methylpiperidin-4-yl)piperazin-1-yl)-1-oxopropan-2-yl)-4-(2-oxo-1,2-dihydroquinolin-3-yl)piperidine-1-carboxamide]","Pain Relief at 15 Minutes Post-Dose, (%) of subjects",[1],(14.2) %
same,"Pain Relief at 15 Minutes Post-Dose, n/N",[1],55/387
same,"Pain Relief at 15 Minutes Post-Dose, Stratified percentage difference (BHV-3500-Placebo)","5 mg single dose, mITT subjects, Overall, CMH weighting",4.2%
same,"Pain Relief at 15 Minutes Post-Dose, (%) of subjects",[2],(14.7) %
same,"Pain Relief at 15 Minutes Post-Dose, Percentage difference (BHV-3500-Placebo)",[2],4.6%
same,"Pain Relief at 15 Minutes Post-Dose, n/N",[2],49/333
same,"Pain Relief at 15 Minutes Post-Dose, (%) of subjects",[3],(11.1) %
same,"Pain Relief at 15 Minutes Post-Dose, Percentage difference (BHV-3500-Placebo)",[3],1.9%
same,"Pain Relief at 15 Minutes Post-Dose, n/N",[3],8/54
same,2 Hour Endpoint Freedom from MBS (Most Bothersome Symptom),5 mg single intranasal dose,39.0%
same,2 Hour Endpoint Pain Freedom,5 mg single intranasal dose,19.6%
same,"Pain Relief at 15 Minutes Post-Dose, (%) of subjects",[4],(18.2) %
same,"Pain Relief at 15 Minutes Post-Dose, n/N",[4],71/331
same,"Pain Relief at 15 Minutes Post-Dose, Stratified percentage difference (BHV-3500-Placebo)","10 mg single dose, mITT subjects, Overall, CMH weighting",8.2%
same,"Pain Relief at 15 Minutes Post-Dose, (%) of subjects",[5],(17.3) %
same,"Pain Relief at 15 Minutes Post-Dose, Percentage difference (BHV-3500-Placebo)",[5],7.2%
same,"Pain Relief at 15 Minutes Post-Dose, n/N",[5],59/341
same,"Pain Relief at 15 Minutes Post-Dose, (%) of subjects",[6],(24.0) %
same,"Pain Relief at 15 Minutes Post-Dose, Percentage difference (BHV-3500-Placebo)",[6],14.7%
same,"Pain Relief at 15 Minutes Post-Dose, n/N",[6],12/50
same,2 Hour Endpoint Freedom from MBS (Most Bothersome Symptom),[7],41.9%*
same,2 Hour Endpoint Pain Freedom,[7],22.5%*
same,return to normal function,20 mg,as early as 30 minutes
same,"Pain Relief at 15 Minutes Post-Dose, (%) of subjects",[8],(14.7) %
same,"Pain Relief at 15 Minutes Post-Dose, n/N",[8],59/402
same,"Pain Relief at 15 Minutes Post-Dose, Stratified percentage difference (BHV-3500-Placebo)","20 mg single dose, mITT subjects, Overall, CMH weighting",4.7%
same,"Pain Relief at 15 Minutes Post-Dose, (%) of subjects",[9],(13.3) %
same,"Pain Relief at 15 Minutes Post-Dose, Percentage difference (BHV-3500-Placebo)",[9],3.2%
same,"Pain Relief at 15 Minutes Post-Dose, n/N",[9],46/345
same,"Pain Relief at 15 Minutes Post-Dose, (%) of subjects",[10],(22.3) %
same,"Pain Relief at 15 Minutes Post-Dose, Percentage difference (BHV-3500-Placebo)",[10],13.5%
same,"Pain Relief at 15 Minutes Post-Dose, n/N",[10],13/57
same,2 Hour Endpoint Freedom from MBS (Most Bothersome Symptom),[11],42.5%*
same,2 Hour Endpoint Pain Freedom,[11],23.1%*
same,onset of pain relief,"5, 10, and 20 mg single dose, stratified CMH tests, mITT subjects",pain relief as early as 15 minutes post-dose
same,durability of benefits (sustained pain freedom and pain relief 2 to 24 and 2 to 48 hours),"5, 10 and 20 mg (pain relief 2 to 48: 5 and 10 mg), nominal p<0.05",durable and sustained without rescue medication out to 48 hours
same,pain relief and return to normal function at 2 hours,10 and 20 mg doses,therapeutic benefits
same,comparison to placebo on co-primary endpoints of pain freedom and freedom from MBS at 2 hours,"10 and 20 mg, single dose, p<0.05",statistically superior
same,comparison to placebo on multiple secondary endpoints demonstrating early activity,nominal p<0.05,superior to placebo
same,"Pain relief at 2 hours postdose, n/N (%)","zavegepant 5 mg intranasal single dose, mITT subjects",(57.9) %
same,"Pain relief at 30 minutes postdose, Stratified Percentage Difference (Zavegepant-Placebo)",[12],1.9%
same,"Pain relief at 60 minutes postdose, Stratified Percentage Difference (Zavegepant-Placebo)",[12],5.1%
same,"Rescue medication use within 24 hours postdose, Stratified Percentage Difference (Zavegepant-Placebo)",[12],−2.4%
same,"Sustained pain freedom from 2 to 24 hours postdose, Stratified Percentage Difference (Zavegepant-Placebo)",[12],5.3%
same,"Sustained pain freedom from 2 to 48 hours postdose, Stratified Percentage Difference (Zavegepant-Placebo)",[12],5.5%
same,"Sustained pain relief from 2 to 24 hours postdose, Stratified Percentage Difference (Zavegepant-Placebo)",[12],8.0%
same,"Sustained pain relief from 2 to 48 hours postdose, Stratified Percentage Difference (Zavegepant-Placebo)",[12],7.4%
same,"Pain relief at 2 hours postdose, Stratified Percentage Difference (Zavegepant-Placebo)","zavegepant 5 mg vs placebo, mITT, stratified by prophylactic migraine medication use, CMH weighting",4.2%
same,"Return to normal function at 30 minutes postdose, Stratified Percentage Difference (Zavegepant-Placebo)",[13],3.4%
same,"Return to normal function at 60 minutes postdose, Stratified Percentage Difference (Zavegepant-Placebo)",[13],5.5%
same,"Return to normal function at 2 hours postdose, Stratified Percentage Difference (Zavegepant-Placebo)",[13],4.3%
same,"Pain relapse from 2 to 48 hours postdose, Stratified Percentage Difference (Zavegepant-Placebo)","zavegepant 5 mg vs placebo, subjects with pain freedom at 2 hours postdose, CMH weighting",−18.9%
same,"Nausea freedom at 2 hours postdose, Stratified Percentage Difference (Zavegepant-Placebo)",[14],1.8%
same,"Phonophobia freedom at 2 hours postdose, Stratified Percentage Difference (Zavegepant-Placebo)",[14],10.1%
same,"Photophobia freedom at 2 hours postdose, Stratified Percentage Difference (Zavegepant-Placebo)",[14],4.6%
same,"Pain relief at 30 minutes postdose, n/N (%)","zavegepant 5 mg, mITT subjects",(26.6) %
same,"Pain relief at 60 minutes postdose, n/N (%)","zavegepant 5 mg, mITT subjects",(47.0) %
same,"Rescue medication use within 24 hours postdose, n/N (%)","zavegepant 5 mg, mITT subjects",(24.9) %
same,"Sustained pain freedom from 2 to 24 hours postdose, n/N (%)","zavegepant 5 mg, mITT subjects",(14.2) %
same,"Sustained pain freedom from 2 to 48 hours postdose, n/N (%)","zavegepant 5 mg, mITT subjects",(12.9) %
same,"Sustained pain relief from 2 to 24 hours postdose, n/N (%)","zavegepant 5 mg, mITT subjects",(43.7) %
same,"Sustained pain relief from 2 to 48 hours postdose, n/N (%)","zavegepant 5 mg, mITT subjects",(40.1) %
same,"Return to normal function at 30 minutes postdose, n/N (%)",[15],(8.8) %
same,"Return to normal function at 60 minutes postdose, n/N (%)",[15],(22.6) %
same,"Return to normal function at 2 hours postdose, n/N (%)",[15],(31.7) %
